# Data published in patent publication US8785459B2, “Quinazoline compounds as kinase inhibitors” (Development Center for Biotechnology, priority 2011, dated 2014).
# Tests used:
# Type in all cases: biochemical
# EGFR kinase = EGFR kinase (Homo sapiens (Human), UniProt P00533); assay: EGFR kinase assay
# Procedure: Inhibition of EGFR kinase activity by compounds disclosed herein is quantified by measuring the amount of [^33P] incorporated into the substrate in the presence of a test compound. Briefly, a reaction mixture of 25 μL final volume containing 25 ng of EGFR kinase (EGFR kinase domain alone, Millipore), 3 μg of the substrate [poly(Glu-Tyr), Sigma], kinase reaction buffer (10 mM MOPS pH 7.0, 0.3 mM EDTA, 0.5% glycerol, 0.001% Brij-35, 10 mM MnCl2, 0.1 mg/ml BSA, 100 μM ATP, 0.1 μCi per well [^33P]-γ-ATP (2,500-3,000 Ci/mmol)), and a test compound (100 nM, diluted with 4% DMSO) or DMSO (as the control) was incubated at 30° C. for 30 minutes. The reaction was stopped by adding 5 μL of 3% phosphoric acid solution. The resultant reaction solution was then harvested onto a filter plate (UniFilter-96 GF/B, PerkinElmer), washed 20 times for 5 min with d.d. H2O, and followed by the addition of 30 μL of MicroScint™-20 Cocktail (PerkinElmer). The radioactivity retained on the filter membrane was measured by TopCount™ scintillation detector (PerkinElmer). The results were analyzed by using linear regression software (GraphPad Prism™ 4; GraphPad Software Inc.). IC50 value is defined as the concentration of the test compound which achieves a half-maximal inhibition of the kinase activity.
# B-Raf = B-Raf (Homo sapiens (Human), UniProt P15056); assay: Raf kinase assay (B-Raf), [33P] incorporation into MEK1(K97R)
# Procedure, shortened: (§1)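 Recombinant C-Raf (2 ng) or B-Raf or B-Raf V600E (5 ng each) phosphorylated 500 ng MEK1(K97R) with 8 μM ATP plus [33P]ATP, pH 7.5, 30 min at 30 °C. Filter-captured 33P counted. IC50 from 3-fold compound dilutions run in duplicate.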
# FLT3 kinase = FLT3 kinase (Homo sapiens (Human), UniProt P36888); assay: FLT3 kinase assay
# Procedure: Inhibition of FLT3 kinase activity by compounds disclosed herein was quantified by measuring the amount of [^33P] incorporated into the substrate in the presence of a test compound. Briefly, a reaction mixture of 25 μL final volume containing 5 ng of Flt3 kinase (obtained by purifying recombinant N-terminal 6×His-tagged Flt3 kinase domain construct expressed from baculovirus), 5 μg of the substrate (Poly(Glu-Tyr, 4:1, Sigma)), kinase reaction buffer (20 mM MOPS pH 7.0, 1 mM EDTA, 5% glycerol, 0.01% Brij-35, 0.1% β-mercaptoethanol, 1 mg/mL BSA, 100 μM ATP, 0.1 μCi per well [^33P]-γ-ATP (2,500-3,000 Ci/mmol)), and a test compound (100 nM, diluted with 4% DMSO) or DMSO (as the control) was incubated at 30° C. for 30 minutes. The reaction was stopped by adding 5 μL of 3% phosphoric acid solution. The resultant reaction solution was then harvested onto a filter plate (UniFilter-96 GF/B, PerkinElmer), washed 20 times for 5 min with d.d. H2O, and followed by the addition of 30 μL of MicroScint™-20 Cocktail (PerkinElmer). The plate was then sealed and counted using a TopCount™ scintillation detector (PerkinElmer). IC50 value is defined as the concentration of the test compound which achieves a half-maximal inhibition of the kinase activity.
# FGFR1 kinase = FGFR1 kinase (Homo sapiens (Human), UniProt P11362); assay: FGFR1 kinase assay
# Procedure: Inhibition of FGFR1 kinase activity by compounds disclosed herein was quantified by measuring the amount of [^33P] incorporated into the substrate in the presence of a test compound. Briefly, a reaction mixture of 25 μL final volume containing 1 ng of FGFR1 kinase (FGFR1 kinase domain alone, Millipore), 5 μg of the substrate [poly(Glu-Tyr), Sigma], kinase reaction buffer (14 mM MOPS pH 7.0, 0.2 mM EDTA, 0.5% glycerol, 0.001% Brij-35, 0.01% β-mercaptoethanol, 0.1 mg/ml BSA, 100 μM ATP, 0.1 μCi per well [^33P]-γ-ATP (2,500-3,000 Ci/mmol)), and a test compound (100 nM, diluted with 4% DMSO) or DMSO (as the control) was incubated at 30° C. for 60 minutes. The reaction was stopped by adding 5 μL of 3% phosphoric acid solution. The resultant reaction solution was then harvested onto a filter plate (UniFilter-96 GF/B, PerkinElmer), washed 20 times for 5 min with d.d. H2O, and followed by the addition of 30 μL of MicroScint™-20 Cocktail (PerkinElmer). The radioactivity retained on the filter membrane was measured by TopCount™ scintillation detector (PerkinElmer). The results were analyzed by using linear regression software (GraphPad Prism™ 4; GraphPad Software Inc.). IC50 value is defined as the concentration of the test compound which achieves a half-maximal inhibition of the kinase activity.
# VEGFR2 kinase = VEGFR2 kinase (Homo sapiens (Human), UniProt P35968); assay: VEGFR2 kinase assay
# Procedure: Inhibition of VEGFR2 kinase activity by compounds disclosed herein was quantified by measuring the amount of [^33P] incorporated into the substrate in the presence of a test compound. […] The reaction was then stopped by adding 5 μL of 3% phosphoric acid solution. The resultant solution was transferred to and harvested by a filter plate (UniFilter-96 GF/B, PerkinElmer). The filter plate was then washed 20 times with d.d. H2O for 5 min followed by the addition of 30 μL of MicroScint™-20 Cocktail (PerkinElmer). After the plate was sealed, the retained radioactivity on the filter was counted using a TopCount™ scintillation detector (PerkinElmer). […]
# B-Raf (V600E) = B-Raf (V600E) (Homo sapiens (Human), UniProt P15056, V600E); assay: Raf kinase assay (B-Raf (V600E)), [33P] incorporation into MEK1(K97R)
# Procedure, shortened: as §1
# C-Raf = C-Raf (Homo sapiens (Human), UniProt P04049); assay: Raf kinase assay (C-Raf), [33P] incorporation into MEK1(K97R)
# Procedure, shortened: as §1
# B-Raf, sequence (P15056 whole entry): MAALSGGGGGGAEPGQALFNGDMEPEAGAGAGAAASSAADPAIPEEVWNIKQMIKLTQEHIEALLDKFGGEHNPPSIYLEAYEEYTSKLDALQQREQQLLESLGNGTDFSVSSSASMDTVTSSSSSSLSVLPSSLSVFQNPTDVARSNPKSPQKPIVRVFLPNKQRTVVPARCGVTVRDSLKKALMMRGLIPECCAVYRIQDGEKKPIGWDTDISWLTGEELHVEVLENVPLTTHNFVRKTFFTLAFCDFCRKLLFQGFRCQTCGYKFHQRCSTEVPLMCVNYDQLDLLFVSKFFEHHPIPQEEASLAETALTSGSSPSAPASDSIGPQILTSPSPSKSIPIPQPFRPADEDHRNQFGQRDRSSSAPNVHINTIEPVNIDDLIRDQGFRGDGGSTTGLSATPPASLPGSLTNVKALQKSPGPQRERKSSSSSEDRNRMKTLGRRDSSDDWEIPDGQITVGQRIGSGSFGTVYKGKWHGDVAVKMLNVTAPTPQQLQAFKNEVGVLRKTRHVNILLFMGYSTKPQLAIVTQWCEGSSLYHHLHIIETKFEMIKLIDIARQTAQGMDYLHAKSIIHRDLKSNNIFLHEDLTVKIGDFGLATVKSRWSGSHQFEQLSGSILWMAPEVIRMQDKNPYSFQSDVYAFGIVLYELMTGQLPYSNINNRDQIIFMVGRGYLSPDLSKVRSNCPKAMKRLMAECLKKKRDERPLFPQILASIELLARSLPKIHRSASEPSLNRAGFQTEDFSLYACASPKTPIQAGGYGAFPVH
# B-Raf (V600E), sequence (P15056 whole entry V600E): as the sequence (P15056 whole entry) above, with V600E counted along it
# FLT3 kinase, sequence (P36888 610-943): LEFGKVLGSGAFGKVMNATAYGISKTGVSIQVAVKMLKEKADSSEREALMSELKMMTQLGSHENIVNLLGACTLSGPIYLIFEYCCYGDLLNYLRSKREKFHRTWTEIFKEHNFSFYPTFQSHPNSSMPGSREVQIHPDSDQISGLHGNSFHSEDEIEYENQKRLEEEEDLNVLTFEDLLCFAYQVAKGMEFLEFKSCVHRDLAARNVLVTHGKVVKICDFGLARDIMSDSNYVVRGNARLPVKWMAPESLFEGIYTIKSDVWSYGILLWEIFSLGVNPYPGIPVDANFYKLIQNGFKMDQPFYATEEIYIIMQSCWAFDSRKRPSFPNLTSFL
# FGFR1 kinase, sequence (P11362 478-767): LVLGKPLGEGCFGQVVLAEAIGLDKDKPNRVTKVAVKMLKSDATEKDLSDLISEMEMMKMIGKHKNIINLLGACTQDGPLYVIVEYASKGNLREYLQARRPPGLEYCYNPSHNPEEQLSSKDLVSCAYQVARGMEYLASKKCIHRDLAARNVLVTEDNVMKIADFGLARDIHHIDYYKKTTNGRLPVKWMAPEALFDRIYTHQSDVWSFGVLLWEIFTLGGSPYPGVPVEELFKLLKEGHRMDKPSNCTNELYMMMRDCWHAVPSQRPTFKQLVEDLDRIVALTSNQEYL
# VEGFR2 kinase, sequence (P35968 834-1162): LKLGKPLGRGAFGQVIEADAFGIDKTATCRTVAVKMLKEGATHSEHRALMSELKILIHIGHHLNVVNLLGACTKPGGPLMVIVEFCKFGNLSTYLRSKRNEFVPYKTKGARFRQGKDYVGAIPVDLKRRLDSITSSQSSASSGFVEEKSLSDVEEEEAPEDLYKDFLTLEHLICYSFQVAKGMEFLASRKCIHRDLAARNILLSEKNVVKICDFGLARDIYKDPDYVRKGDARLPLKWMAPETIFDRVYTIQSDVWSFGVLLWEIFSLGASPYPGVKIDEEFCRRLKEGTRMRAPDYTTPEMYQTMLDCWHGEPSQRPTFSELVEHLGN
# EGFR kinase, sequence (P00533 712-979): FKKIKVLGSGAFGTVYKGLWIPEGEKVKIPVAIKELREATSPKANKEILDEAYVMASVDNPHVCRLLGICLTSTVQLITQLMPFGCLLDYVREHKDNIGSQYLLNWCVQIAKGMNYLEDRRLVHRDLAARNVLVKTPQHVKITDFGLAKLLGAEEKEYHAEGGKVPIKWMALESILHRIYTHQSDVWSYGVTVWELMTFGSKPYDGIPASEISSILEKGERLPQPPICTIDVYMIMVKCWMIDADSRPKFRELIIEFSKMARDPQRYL
# C-Raf, sequence (P04049 whole entry): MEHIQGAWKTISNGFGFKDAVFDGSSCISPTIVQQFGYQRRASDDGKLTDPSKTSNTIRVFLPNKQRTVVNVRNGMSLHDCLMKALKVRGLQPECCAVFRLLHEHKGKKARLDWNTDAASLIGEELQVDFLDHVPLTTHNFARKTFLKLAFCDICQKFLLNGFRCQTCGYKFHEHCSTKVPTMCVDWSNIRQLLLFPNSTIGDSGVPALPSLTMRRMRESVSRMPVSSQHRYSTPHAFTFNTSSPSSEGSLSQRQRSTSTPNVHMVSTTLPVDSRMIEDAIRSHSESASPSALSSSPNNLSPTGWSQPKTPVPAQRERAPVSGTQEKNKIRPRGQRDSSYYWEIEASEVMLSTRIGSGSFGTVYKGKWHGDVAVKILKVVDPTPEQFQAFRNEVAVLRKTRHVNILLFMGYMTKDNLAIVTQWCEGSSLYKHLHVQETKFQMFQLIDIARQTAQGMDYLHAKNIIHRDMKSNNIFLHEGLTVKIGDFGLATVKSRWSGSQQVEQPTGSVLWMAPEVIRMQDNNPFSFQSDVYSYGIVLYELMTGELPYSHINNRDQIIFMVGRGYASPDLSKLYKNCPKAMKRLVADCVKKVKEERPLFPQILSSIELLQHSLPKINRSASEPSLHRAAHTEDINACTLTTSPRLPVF
compound,measurement,setting,value
"COc1cc(-c2ccc3ncnc(Nc4ccc(O)cc4)c3c2)ccc1O [Compound 19, 4-(4-(4-hydroxyphenylamino)quinazolin-6-yl)-2-methoxyphenol]",IC50,EGFR kinase,56.4 nM
same,IC50,B-Raf,557 nM
same,inhibition at 1 µM,"B-Raf; 1.0 μM compound, read-out: B-Raf inhibition at 1.0 μM",55.8%
same,IC50,FLT3 kinase,146 nM
same,IC50,FGFR1 kinase,1440 nM
same,IC50,VEGFR2 kinase,5400 nM
same,IC50,B-Raf (V600E),522 nM
same,IC50,C-Raf,503 nM
